The record followed here is ChEMBL document CHEMBL1201862, “PubChem BioAssay data set” (2004).

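Results reflect a 48-hour exposure of cells in 96-well plates to compound at five concentrations. Abbreviation: GI50, concentration required for 50% inhibition of growth.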 Calls of active or inactive are those of the source. No stated cut-off is given here; in the data, active = GI50 up to about 1.1 µM and inactive = higher.

Test systems include UACC-257; HOP-92; Hs-578T; CAKI-1; MDA-MB-231; A549; SNB-19; PC-3; SK-MEL-5; 786-0; HCT-15; MCF7; IGROV-1; BT-549; HCT-116; K562; SF-539; NCI-H23; SN12C.
What all share (test): NCI anticancer screen, dose series, 48 h

For the molecule `COc1ccc(/C=C/c2nsc(/C=C/c3ccc(OC)cc3)n2)cc1`, the GI50 is 41.4 µM (inactive) with UACC-257; > 100 µM (inactive) in the assay with HOP-92; > 100 µM (inactive) in the assay with Hs-578T; > 100 µM (inactive) with CAKI-1; > 100 µM (inactive) with MDA-MB-231; > 100 µM (inactive) in the assay on A549. The GI50 with SNB-19 was > 100 µM (inactive); with PC-3 it was 48.5 µM (inactive); with SK-MEL-5 it was > 100 µM (inactive); in the assay with 786-0, 21.8 µM (inactive); in the assay on HCT-15, 52.1 µM; in the assay on MCF7 it was > 100 µM (inactive). Also, the GI50 is > 100 µM (inactive) in the assay on IGROV-1; > 100 µM (inactive) in the assay with BT-549; > 100 µM (inactive) in the assay on HCT-116; 33.3 µM (inactive) with K562; > 100 µM (inactive) in the assay on SF-539.
For `COc1ccc(-c2nnc(CCCCCCCCc3nnc(-c4ccc(OC)cc4)n3N)n2N)cc1`, the GI50 in the assay on UACC-257 is > 100 µM (inactive); in the assay on HOP-92 it was > 39.3 µM (inactive); with Hs-578T it was > 59 µM (inactive); with CAKI-1, > 100 µM (inactive); in the assay with MDA-MB-231, > 57.8 µM (inactive); with A549, > 100 µM (inactive). The GI50 in the assay with SNB-19 was > 60.3 µM (inactive); in the assay with PC-3, > 100 µM (inactive); in the assay with SK-MEL-5, > 100 µM (inactive); in the assay with 786-0, > 31.6 µM (inactive); in the assay on HCT-15 it was over 100 µM; with MCF7 it was > 100 µM (inactive). Further, the GI50 in the assay on IGROV-1 was > 96.6 µM (inactive); in the assay with BT-549 it was 58.5 µM (inactive); in the assay with HCT-116, > 66.1 µM (inactive); in the assay on NCI-H23 it was > 100 µM (inactive); with K562 it was > 100 µM (inactive); with SN12C, > 100 µM (inactive). The GI50 with SF-539 is > 76.2 µM (inactive).
Consider `CNc1ncnc2c1cnn2CCCCO`, for which the GI50 in the assay with UACC-257, in the assay with HOP-92, in the assay with Hs-578T, in the assay on CAKI-1, in the assay with MDA-MB-231 and in the assay on A549 was > 100 µM (inactive) in each case. Besides, the GI50 is > 100 µM (inactive) with SNB-19; > 100 µM (inactive) with PC-3; > 100 µM (inactive) in the assay on SK-MEL-5; > 100 µM (inactive) in the assay with 786-0; over 100 µM in the assay on HCT-15; > 100 µM (inactive) in the assay on MCF7. Besides, the GI50 in the assay on IGROV-1, in the assay on BT-549, in the assay on HCT-116, in the assay on NCI-H23, in the assay on K562 and in the assay on SN12C was > 100 µM (inactive) each time. Besides, the GI50 in the assay with SF-539 was > 100 µM (inactive).
Consider `Cc1cc2c(cc1Cl)SC(NNCCO)=NS2(=O)=O`, for which the GI50 with UACC-257, in the assay on HOP-92, with Hs-578T, in the assay with CAKI-1, in the assay with MDA-MB-231 and in the assay with SNB-19 was > 100 µM (inactive) each time. Besides, the GI50 was 86.3 µM (inactive) in the assay with PC-3; 73.1 µM (inactive) in the assay with SK-MEL-5; > 100 µM (inactive) in the assay on 786-0; over 100 µM in the assay with HCT-15; > 100 µM (inactive) in the assay with MCF7; > 100 µM (inactive) with IGROV-1. Also, the GI50 is > 100 µM (inactive) with BT-549; > 100 µM (inactive) in the assay with HCT-116; > 100 µM (inactive) in the assay with NCI-H23; 56.2 µM (inactive) in the assay with K562; > 100 µM (inactive) with SF-539.
As to `CCOC(=O)C1=C(C)N(Cc2ccccc2)C2(O)C(OC)CC(=O)C3C(=O)N(c4ccccc4)C(=O)C132` (stereo not given), the GI50 was 15.5 µM (inactive) in the assay with UACC-257; 14.2 µM (inactive) in the assay on HOP-92; 83.4 µM (inactive) with Hs-578T; 17 µM (inactive) in the assay on CAKI-1; 13.5 µM (inactive) in the assay with MDA-MB-231; 7.74 µM (inactive) with A549. The GI50 with SNB-19 is 16.3 µM (inactive); in the assay with PC-3 it was 7.73 µM (inactive); in the assay on SK-MEL-5, 10.3 µM (inactive); with 786-0, 8.07 µM (inactive); in the assay with HCT-15, 5.75 µM; in the assay with MCF7 it was 3.61 µM (inactive). Further, the GI50 in the assay with IGROV-1 was 15.7 µM (inactive); with BT-549 it was 4.97 µM (inactive); in the assay on HCT-116, 6.3 µM (inactive); in the assay on NCI-H23, 15.8 µM (inactive); with K562, 4.43 µM (inactive); in the assay with SN12C, 10.6 µM (inactive). The GI50 in the assay on SF-539 was 15 µM (inactive).
Take `N#Cc1c(N)c2c(c(-c3ccccc3)c1-c1ccccc1)C(=O)N(Nc1ccccc1)C2=O`: the GI50 in the assay on UACC-257 was 48.6 µM (inactive); with HOP-92 it was 48.1 µM (inactive); in the assay on Hs-578T, 95.3 µM (inactive); in the assay on CAKI-1, 63.1 µM (inactive); in the assay with MDA-MB-231, > 100 µM (inactive); in the assay on A549 it was 26.9 µM (inactive). Moreover, the GI50 with SNB-19 is 45.8 µM (inactive); in the assay with PC-3, 28.3 µM (inactive); in the assay with SK-MEL-5, 28.8 µM (inactive); in the assay on 786-0, 40.6 µM (inactive); in the assay with HCT-15 it was 45.7 µM; with MCF7, 47.8 µM (inactive). Besides, the GI50 with IGROV-1 is 34.8 µM (inactive); in the assay with BT-549 it was 56.1 µM (inactive); with HCT-116, 12.9 µM (inactive); in the assay on K562, 33.6 µM (inactive); in the assay on SN12C, 30.7 µM (inactive); with SF-539 it was 35.8 µM (inactive).
For the molecule `CCCCCCCCCCC(O)C1CCC(C2CCC(C(O)CCCCC(O)CCCCCC(O)CC3=CC(C)OC3=O)O2)O1` (stereo not given), the GI50 is 2.12 µM (inactive) in the assay on UACC-257; > 25 µM (inactive) with HOP-92; 4.75 µM (inactive) in the assay on Hs-578T; > 25 µM (inactive) in the assay with CAKI-1; > 25 µM (inactive) in the assay with MDA-MB-231; > 20.9 µM (inactive) in the assay with A549. Besides, the GI50 in the assay with SNB-19 was > 25 µM (inactive); with PC-3, > 25 µM (inactive); with SK-MEL-5, 0.258 µM (active); in the assay with 786-0 it was > 25 µM (inactive); in the assay with HCT-15, over 25 µM; with MCF7, 1.18 µM (inactive). In addition, the GI50 was 3.72 µM (inactive) in the assay with IGROV-1; > 25 µM (inactive) with BT-549; 0.748 µM (active) with HCT-116; > 6.9 µM (inactive) in the assay on K562; 9.48 µM (inactive) in the assay on SN12C; > 25 µM (inactive) in the assay with SF-539.
With `CO[C@H]1C[C@@H]2CC[C@@H](C)[C@@](O)(O2)C(=O)C(=O)N2CCCC[C@H]2C(=O)O[C@H]([C@H](C)C[C@@H]2CC[C@@H](OC(=O)C(C)(CO)CO)[C@H](OC)C2)CC(=O)[C@H](C)/C=C(\C)[C@@H](O)[C@@H](OC)C(=O)[C@H](C)C[C@H](C)/C=C/C=C/C=C/1C` [TEMSIROLIMUS], the GI50 in the assay on UACC-257 was 1.99 µM (inactive); in the assay with HOP-92, 0.00254 µM (active); in the assay with Hs-578T, 0.00724 µM (active); in the assay with CAKI-1, 0.0142 µM (active); in the assay with MDA-MB-231 it was 0.0217 µM (active); in the assay with A549, 0.0301 µM (active). In addition, the GI50 was 0.0258 µM (active) in the assay on SNB-19; 0.00123 µM (active) with PC-3; 0.0792 µM (active) in the assay with SK-MEL-5; 0.00312 µM (active) in the assay with 786-0; 0.0849 µM in the assay on HCT-15; 0.00538 µM (active) in the assay on MCF7. Moreover, the GI50 was 0.00904 µM (active) with BT-549; 3.26 µM (inactive) with HCT-116; 0.00501 µM (active) in the assay on NCI-H23; 0.0228 µM (active) with K562; 0.00607 µM (active) with SN12C; 0.00873 µM (active) in the assay with SF-539.
